In article PMC5365645, “Preclinical Pharmacokinetics and Pharmacodynamic Target of SCY-078, a First-in-Class Orally Active Antifungal Glucan Synthesis Inhibitor, in Murine Models of Disseminated Candidiasis” (Antimicrobial Agents and Chemotherapy, 2017):
Like-named read-outs stand apart in the source and are kept apart here. *1 amine or outer side, *2 acyl side, *3 side chain or, on linkers, in order; H or OH if unused. Where a SMILES comes first, the peptide text is derived from it. Bridges are numbered along the chain shown (N, C = ends). [ ]: non-standard residue; d: D form. The star is where a group is joined. hTyr(3S-OH,4S-OH,3'-OSO3H) = N[C@H](C(=O)O)[C@H](O)[C@@H](O)c1ccc(O)c(OS(=O)(=O)O)c1; pTerphenylCO(4''-OnC5H11) = CCCCCOc1ccc(-c2ccc(-c3ccc(C(=O)*)cc3)cc2)cc1; Orn(4R-OH,5R-OH) = O=C([C@H](C[C@@H](O)[C@@H](O)N[*:3])N[*:1])[*:2]; hTyr(3S-OH,4S-OH) = N[C@H](C(=O)O)[C@H](O)[C@@H](O)c1ccc(O)cc1; Pro(3S-OH,4S-Me) = C[C@H]1CN[C@H](C(=O)O)[C@H]1O; X1 = CCCCCOc1ccc(-c2cc(-c3ccc(C(=O)*)cc3)no2)cc1; Gln(3R-OH) = NC(=O)C[C@@H](O)[C@H](N)C(=O)O; Hyp = O=C(O)[C@@H]1C[C@@H](O)CN1

Assays:
[1] = Volume of distribution after i.v. administration (literature); conditions: in vivo, iv, Rat, calculated using previously published data ref 17, read-out: Vd ss
From the text: TABLE 7 Volume of distribution for SCY-078 and echinocandins after i.v. administration | column: Vd ss (liters/kg)^a / Anidulafungin

[2] = Human, cited from earlier work
[3] = cited from earlier work
[4] = Rabbit, cited from earlier work
C. albicans MY1055 = assay: Immediate treatment murine model of disseminated candidiasis
[5] = Mouse, cited from earlier work
[6] = Rat, i.v. ref 26; cited from earlier work
[7] = design: method as in ref 26 = [26]; 26. Yamato Y , Kaneko H , Hashimoto T , Katashima M , Ishibashi K , Kawamura A , Terakawa M , Kagayama A 2002 Pharmacokinetics of the anti-fungal drug micafungin in mice, rats and dogs, and its in vit; conditions: Dog, i.v. ref 26; cited from earlier work

For `CCCCCOc1ccc(-c2ccc(-c3ccc(C(=O)N[C@H]4C[C@@H](O)[C@@H](O)NC(=O)[C@@H]5[C@@H](O)[C@@H](C)CN5C(=O)[C@H]([C@@H](C)O)NC(=O)[C@H]([C@H](O)[C@@H](O)c5ccc(O)cc5)NC(=O)[C@@H]5C[C@@H](O)CN5C(=O)[C@H]([C@@H](C)O)NC4=O)cc3)cc2)cc1` [Anidulafungin, anidulafungin] ({pTerphenylCO(4''-OnC5H11)}-[Orn(4R-OH,5R-OH)]T[Hyp][hTyr(3S-OH,4S-OH)]T[Pro(3S-OH,4S-Me)]; lactam 1-C), the Vd [1] is listed as 2.16 L/kg, the Vd ss ([2]; i.v. ref 31) is listed as 0.5 L/kg and the Kidney/plasma ratio ([3]; after i.v. delivery to rodents ref 17) is listed as 10.7. The Vd ss ([4]; i.v. ref 28) was 0.93–1.23 ([28]) liters/kg.
In the case of `CC[C@H](C)C[C@H](C)CCCCCCCCC(=O)N[C@H]1C[C@@H](O)[C@@H](NCCN)NC(=O)[C@@H]2[C@@H](O)CCN2C(=O)[C@H]([C@H](O)CCN)NC(=O)[C@H]([C@H](O)[C@@H](O)c2ccc(O)cc2)NC(=O)[C@@H]2C[C@@H](O)CN2C(=O)[C@H]([C@@H](C)O)NC1=O` [Caspofungin, caspofungin], the Vd ss ([2]; i.v. ref 31) is listed as 0.14 ([31]) liters/kg, the “Dose effective in clearing kidney fungal burden” value (C. albicans MY1055; administered intraperitoneally twice daily (data not shown)) is listed as at least 0.125 mg/kg and the Kidney/plasma ratio ([3]; after i.v. delivery to rodents ref 22) is listed as “approximately 2.9”. The Kidney/plasma ratio ([3]; after i.v. delivery to rodents, based on the total radioactivity over 24 h ref 23) was 2.8, the Vd ss ([5]; i.v. ref 22) was 0.25 L/kg and the Vd ss ([5]; i.v. ref 25) was 0.45 L/kg. The Vd ss ([4]; i.v. ref 25) was 0.28 L/kg and the Vd ss ([4]; i.v. ref 29) was 0.26 L/kg.
In the case of `OC(Cn1cncn1)(Cn1cncn1)c1ccc(F)cc1F` [FLU, fluconazole, reference compound], the “Clearance of fungal infection” value (C. albicans MY1055; up to 5 mg/kg p.o. BID) is reported as “did not result in clearance of fungal infection in any of the animals tested”.
For `CCCCCOc1ccc(-c2cc(-c3ccc(C(=O)N[C@H]4C[C@@H](O)[C@@H](O)NC(=O)[C@@H]5[C@@H](O)[C@@H](C)CN5C(=O)[C@H]([C@H](O)CC(N)=O)NC(=O)[C@H]([C@H](O)[C@@H](O)c5ccc(O)c(OS(=O)(=O)O)c5)NC(=O)[C@@H]5C[C@@H](O)CN5C(=O)[C@H]([C@@H](C)O)NC4=O)cc3)no2)cc1` [Micafungin, micafungin] (X1-[Orn(4R-OH,5R-OH)]T[Hyp][hTyr(3S-OH,4S-OH,3'-OSO3H)][Gln(3R-OH)][Pro(3S-OH,4S-Me)]; lactam 1-C), the Vd ss [6] is given as 0.42–0.56 ([26]) liters/kg, the Vd ss ([2]; i.v. ref 31) is given as 0.21 to 0.24 L/kg and the Vd ss ([2]; i.v. ref 32) is given as 0.26 L/kg. For the same compound, the Kidney/plasma ratio ([3]; after i.v. delivery to rodents ref 24) was 3.4, the Vd ss ([5]; i.v. ref 26) was 0.38–0.49 ([26]) liters/kg and the Vd ss ([4]; i.v. ref 30) was 0.313 ([30]) liters/kg. For the same compound, the Vd ss [7] was 0.23–0.25 ([26]) liters/kg.
